Laboratory results: ChEMBL document CHEMBL5500321, “Synthesis and clinical application of small-molecule drugs approved to treat prostatic cancer” (Eur J Med Chem, 2023)

Assays:
[1] = Antiproliferative activity against human LNCaP/AR cells assessed as reduction in cell growth measured after 3 days by CellTiter-Glo assay; assay type: functional, cell-based; conditions: 72 h
[2] = system: 4T1; assay: Antitumor activity against mouse 4T1 cells xenografted in BALB/c mouse model assessed as reduction in tumor growth at 100 microg/ml measured after 20 days relative to control; assay type: functional; set-up: scale not given: the % may be the effect or the level left; conditions: dose 100 µg/ml; time 20 day
[3] = biological target: Tubulin; assay: Inhibition of microtubule (unknown origin) polymerization; assay type: protein-complex assay, Homo sapiens
[4] = system: DU-145; assay: Antimitotic activity against human DU-145 cells assessed as reduction in cell proliferation incubated for 72 hrs by alamar blue based fluorescence spectrophotometric analysis; assay type: functional; conditions: DU-145, 72 h
[5] = system: T47D; assay: Antiproliferative activity against human T47D cells assessed as reduction in cell growth incubated for 48 hrs by MTT assay; assay type: functional, cell-based
[6] = system: ZR-75-1; assay: Antiproliferative activity against human ZR-75-1 cells assessed as reduction in cell growth measured after 5 days by Celltiter-Glo assay; assay type: functional, cell-based; conditions: ZR-75-1, 120 h

## CC(O)(CS(=O)(=O)c1ccc(F)cc1)C(=O)Nc1ccc(C#N)c(C(F)(F)F)c1 (stereo unspecified) [BICALUTAMIDE]
[1]
  IC50: 160 nM

## CO[C@H]1C(=O)[C@]2(C)[C@@H](OC)C[C@H]3OC[C@@]3(OC(C)=O)[C@H]2[C@H](OC(=O)c2ccccc2)[C@]2(O)C[C@H](OC(=O)[C@H](O)[C@@H](NC(=O)OC(C)(C)C)c3ccccc3)C(C)=C1C2(C)C [CABAZITAXEL]
[2]
  Activity: 56.2%

## CC(=O)O[C@@]12CO[C@@H]1C[C@H](O)[C@@]1(C)C(=O)[C@H](O)C3=C(C)[C@@H](OC(=O)[C@H](O)[C@@H](NC(=O)OC(C)(C)C)c4ccccc4)C[C@@](O)([C@@H](OC(=O)c4ccccc4)[C@H]21)C3(C)C [DOCETAXEL ANHYDROUS]
[3]
  IC50: 200 nM

## C[C@]12CC[C@@H]3c4ccc(OC(=O)N(CCCl)CCCl)cc4CC[C@H]3[C@@H]1CC[C@@H]2OP(=O)(O)O [ESTRAMUSTINE PHOSPHATE SODIUM]
[4]
  IC50: 16000 nM

## CC1(C)NC(=O)N(c2ccc([N+](=O)[O-])c(C(F)(F)F)c2)C1=O [NILUTAMIDE]
[5]
  IC50: 87 nM
[6]
  IC50: 75 nM
